Test results as given in patent US20260124146A1, “MODIFIED RELEASE TOLCAPONE FORMULATIONS” (Corino Therapeutics, Inc., priority 2022, published 2026).
Values after ≈ are worked out from the molar mass of the structure shown. Where two headings read alike, the source gives them in different places.

Experiments:
[1] = safety evaluation in the Phase I study; type: in vivo, human; settings: single oral doses, healthy subjects
Source text: Treatment-emergent adverse events (TEAEs), serious adverse events (SAEs), vital signs, ECG measurements (triplicate), physical examination, standard laboratory evaluations.

[2] = solubility assessment of micronized tolcapone in buffers (HPLC assay and visual observation); type: physicochemical; settings: for solubility at 1 h / solubility at 2 h: buffer, thermodynamic from solid
Method: Two aliquots of each sample were taken at 1 and 2 hour time points. One aliquot was used for Assay and Related Substances analysis by reverse phase HPLC and the other aliquot was used to obtain microscopic images using 5.5× magnification, polarised and non-polarised light. In addition, representative photograph of each n=1 sample at 1 hour time point were taken for information. pH of each sample was measured at 2 hour time point.

TTR = settings: cited from earlier work

With Cc1ccc(C(=O)c2cc(O)c(O)c([N+](=O)[O-])c2)cc1 [tolcapone] the safety and tolerability [1] was “safe and well tolerated”, the “solubility (in words)” value ([2]; acidic conditions) was “poorly soluble” and the “solubility (in words)” value ([2]; at about pH 6.8) was “improved solubility”. The solubility at 1 h ([2]; pH 2, aqueous buffer, pH 2.0, 1 Hour, replicates N=1, N=2, read-out: Assay (solubility by HPLC)) was 23 µg/mL (≈ 84.2 µM), the solubility at 1 h ([2]; pH 2, aqueous buffer, pH 2.0, 1 Hour, read-out: Mean Assay (solubility by HPLC)) was 20 µg/mL (≈ 73.2 µM) and the solubility at 2 h ([2]; pH 2, aqueous buffer, pH 2.0, 2 Hour, replicates N=1, N=2, read-out: Assay (solubility by HPLC)) was 20 µg/mL (≈ 73.2 µM). The solubility at 2 h ([2]; pH 2, aqueous buffer, pH 2.0, 2 Hour, read-out: Mean Assay (solubility by HPLC)) was 21 µg/mL (≈ 76.9 µM), the solubility at 1 h ([2]; pH 4.5, aqueous buffer, pH 4.5, 1 Hour, replicates N=1, N=2, read-out: Assay (solubility by HPLC)) was 45 µg/mL (≈ 165 µM) and the solubility at 1 h ([2]; pH 4.5, aqueous buffer, pH 4.5, 1 Hour, read-out: Mean Assay (solubility by HPLC)) was 45 µg/mL (≈ 165 µM). The solubility at 2 h ([2]; pH 4.5, aqueous buffer, pH 4.5, 2 Hour, replicates N=1, N=2, read-out: Assay (solubility by HPLC)) was 52 µg/mL (≈ 190 µM), the solubility at 2 h ([2]; pH 4.5, aqueous buffer, pH 4.5, 2 Hour, read-out: Mean Assay (solubility by HPLC)) was 51 µg/mL (≈ 187 µM) and the solubility at 1 h ([2]; pH 5.5, aqueous buffer, pH 5.5, 1 Hour, replicates N=1, N=2, read-out: Assay (solubility by HPLC)) was 258 µg/mL (≈ 944 µM). For the same compound, the solubility at 1 h ([2]; pH 5.5, aqueous buffer, pH 5.5, 1 Hour, read-out: Mean Assay (solubility by HPLC)) was 248 µg/mL (≈ 908 µM), the solubility at 2 h ([2]; pH 5.5, aqueous buffer, pH 5.5, 2 Hour, replicates N=1, N=2, read-out: Assay (solubility by HPLC)) was 283 µg/mL (≈ 1040 µM) and the solubility at 2 h ([2]; pH 5.5, aqueous buffer, pH 5.5, 2 Hour, read-out: Mean Assay (solubility by HPLC)) was 275 µg/mL (≈ 1010 µM). The solubility at 1 h ([2]; pH 6.8, aqueous buffer, pH 6.8, 1 Hour, replicates N=1, N=2, read-out: Assay (solubility by HPLC)) was 920 µg/mL (≈ 3370 µM), the solubility at 1 h ([2]; pH 6.8, aqueous buffer, pH 6.8, 1 Hour, read-out: Mean Assay (solubility by HPLC)) was 1280 µg/mL (≈ 4690 µM) and the solubility at 2 h ([2]; pH 6.8, aqueous buffer, pH 6.8, 2 Hour, replicates N=1, N=2, read-out: Assay (solubility by HPLC)) was 905 µg/mL (≈ 3310 µM). The solubility at 2 h ([2]; pH 6.8, aqueous buffer, pH 6.8, 2 Hour, read-out: Mean Assay (solubility by HPLC)) was 1030 µg/mL (≈ 3780 µM), the solubility at 1 h ([2]; pH 7.4, aqueous buffer, pH 7.4, 1 Hour, replicates N=1, N=2, read-out: Assay (solubility by HPLC)) was 473 µg/mL (≈ 1730 µM) and the solubility at 1 h ([2]; pH 7.4, aqueous buffer, pH 7.4, 1 Hour, read-out: Mean Assay (solubility by HPLC)) was 463 µg/mL (≈ 1690 µM). The solubility at 2 h ([2]; pH 7.4, aqueous buffer, pH 7.4, 2 Hour, replicates N=1, N=2, read-out: Assay (solubility by HPLC)) was 489 µg/mL (≈ 1790 µM), the solubility at 2 h ([2]; pH 7.4, aqueous buffer, pH 7.4, 2 Hour, read-out: Mean Assay (solubility by HPLC)) was 501 µg/mL (≈ 1830 µM) and the “Assay (solubility by HPLC)” value ([2]; pH 2.0, 1 Hour, replicates N=1, N=2) was 18 µg/mL. The “Assay (solubility by HPLC)” value ([2]; pH 2.0, 2 Hour, replicates N=1, N=2) was 23 µg/mL, the “Assay (solubility by HPLC)” value ([2]; pH 4.5, 2 Hour, replicates N=1, N=2) was 51 µg/mL and the “Assay (solubility by HPLC)” value ([2]; pH 5.5, 1 Hour, replicates N=1, N=2) was 237 µg/mL. The “Assay (solubility by HPLC)” value ([2]; pH 5.5, 2 Hour, replicates N=1, N=2) was 267 µg/mL, the “Assay (solubility by HPLC)” value ([2]; pH 6.8, 1 Hour, replicates N=1, N=2) was 1644 µg/mL and the “Assay (solubility by HPLC)” value ([2]; pH 6.8, 2 Hour, replicates N=1, N=2) was 1163 µg/mL. For the same compound, the “Assay (solubility by HPLC)” value ([2]; pH 7.4, 1 Hour, replicates N=1, N=2) was 452 µg/mL, the “Assay (solubility by HPLC)” value ([2]; pH 7.4, 2 Hour, replicates N=1, N=2) was 513 µg/mL and the “overall mean increase in plasma TTR tetramer concentration” value (TTR; 100 mg three times daily 14 days then 200 mg three times daily 14 days, oral, hATTR-leptomeningeal patients, plasma) was 55%. The “mean decrease of monomeric TTR concentration in CSF” value (TTR; same regimen, CSF, measured under semi-denaturing conditions) was 48%.
